Measured values published in patent US11479563B2, “Biphenyl compound or salt thereof” (TAIHO PHARMACEUTICAL CO., LTD., priority 2017, dated 2022).
Where a name gives a salt, the structure may show the parent alone.

Tests used:
[1] = system: NCI-H146 cells (human small-cell lung cancer cell lines); assay: Cell-growth inhibition test: NCI-H146 cells; format: cell-based; details: Homo sapiens, NCI-H146, read-out: Cell-Growth Inhibition Test: NCI-H146 Cells IC50 (nM)
Experimental: Under the following conditions, an in vitro cell-growth inhibition test was performed with respect to HEL cells (human acute myelocytic leukemia cell lines), NCI-H1417 cells (human small-cell lung cancer cell lines), and NCI-H146 cells (human small-cell lung cancer cell lines).
The cells with the compound of the present invention or with dimethylsulfoxide alone were cultured at 37° C. in a 5% carbon-dioxide-containing incubator for 5 days (HEL cells) or 10 days (NCI-H1417 cells and NCI-H146 cells). After culture, the plate was allowed to stand at room temperature for 30 minutes, and 100 μL of the supernatant was removed from each well to leave 100 μL of the cell culture solution. To each well containing the remaining 100 μL of the cell culture solution, the same amount of CellTiter-Glo 2.0 Assay (Promega, Cat #: G9242) was added. The microplate was shaken with a plate mixer for 1 minute and then allowed to stand in a dark place for 10 minutes. Thereafter, the luminescence intensity of viable cells in each well was measured using a microplate reader (PerkinElmer, EnSpire). […] Cell growth rate (%)=T/C×100 T: The luminescence intensity in a well to which the compound of the present invention was added (count per second) C: The luminescence intensity in a well to which dimethylsulfoxide alone was added (count per second)

[2] = system: HEL cells (human acute myelocytic leukemia cell lines); assay: cells; details: read-out: Cell-Growth Inhibition Test: HEL Cells IC50 (nM);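 also: viable cell count by CellTiter-Glo 2.0 luminescence after 5 days of culture at 37 °C, growth expressed relative to DMSO-only wells as 100%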
[3] = system: NCI-H1417 cells (human small-cell lung cancer cell lines); assay: cells; details: NCI-H1417, read-out: Cell-Growth Inhibition Test: NCI-H1417 Cells IC50 (nM);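 also: growth of NCI-H1417 cells over 10 days at 37 °C, read as viable-cell luminescence by CellTiter-Glo 2.0, expressed as % of DMSO-only control wells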

SMILES	IC50 [1]	IC50 [2]	IC50 [3]
Cn1ccc2cc(-c3ccc(C(=O)N4[C@@H]5CC[C@H]4C[C@H](N)C5)cc3-c3ccc(C#N)c(F)c3)ccc21 [Example 18]	8.13 nM	3.55 nM	4.73 nM
COCCc1ccc(-c2ccc(C(=O)N3[C@@H]4CC[C@H]3C[C@@H](N)C4)cc2-c2ccc(C#N)c(F)c2)c(F)c1 [Example 22]	15 nM	3.51 nM	8.2 nM
Cn1ccc2cc(-c3ccc(C(=O)N4[C@@H]5CC[C@H]4C[C@H](N)C5)cc3-c3ccc(C#N)c(F)c3)c(F)cc21 [Example 23]	9.33 nM	0.73 nM	0.99 nM
Cn1ncc2cc(-c3ccc(C(=O)N4[C@@H]5CC[C@H]4C[C@H](N)C5)cc3-c3ccc(C#N)c(F)c3)c(F)cc21 [Example 24]	4.04 nM	3.56 nM	0.97 nM
CC(C)(O)Cc1ccc(-c2ccc(C(=O)N3[C@@H]4CC[C@H]3C[C@@H](N)C4)cc2-c2ccc(C#N)c(F)c2)c(F)c1 [Example 41]	9.76 nM	4.98 nM	6.12 nM
Cn1ccc2cc(-c3ccc(C(=O)N4[C@@H]5CC[C@H]4C[C@@H](N)C5)cc3-c3ccc(C#N)c(F)c3)c(F)cc21 [Example 123]	1.39 nM	1.39 nM	3.57 nM
CC(C)(O)Cn1nnc2cc(-c3ccc(C(=O)N4[C@@H]5CC[C@H]4C[C@@H](N)C5)cc3-c3ccc(C#N)c(F)c3)c(F)c(F)c21 [Example 161]	1.09 nM	6.88 nM	2.49 nM
Cc1nn(CC(C)(C)O)c2cc(F)c(-c3ccc(C(=O)N4[C@@H]5CC[C@H]4C[C@@H](N)C5)cc3-c3ccc(C#N)c(F)c3)cc12 [Example 181, 5′-((3-endo)-3-amino-8-azabicyclo[3.2.1]octane-8-carbonyl)-3-fluoro-2′-(6-fluoro-1-(2-hydroxy-2-methylpropyl)-3-methyl-1H-indazol-5-yl)-[1,1′-biphenyl]-4-carbonitrile]	2.93 nM	9.06 nM	4.6 nM
CC(C)(O)Cn1ccc2cc(-c3ccc(C(=O)N4[C@@H]5CC[C@H]4C[C@@H](N)C5)cc3-c3ccc(C#N)c(F)c3)c(F)c(F)c21 [Example 183, 5′-((3-endo)-3-amino-8-azabicyclo[3.2.1]octane-8-carbonyl)-2′-(6,7-difluoro-1-(2-hydroxy-2-methylpropyl)-1H-indol-5-yl)-3-fluoro-[1,1′-biphenyl]-4-carbonitrile]	0.25 nM	0.54 nM	1.01 nM
CC(C)(O)Cn1nnc2cc(-c3ccc(C(=O)N4C5CCC4C(N)C5)cc3-c3ccc(C#N)c(F)c3)c(F)c(Br)c21 [Example 273, 5′-((1S,2S,4R)-rel-2-amino-7-azabicyclo[2.2.1]heptane-7-carbonyl)-2′-(7-bromo-6-fluoro-1-(2-hydroxy-2-methylpropyl)-1H-benzo[d][1,2,3]triazol-5-yl)-3-fluoro-[1,1′-biphenyl]-4-carbonitrile-isomer-X]	0.63 nM	0.27 nM	
CC(C)(O)Cn1ncc2cc(-c3ccc(CN4C5CCC4C(N)C5)cc3-c3ccc(C#N)c(F)c3)c(F)cc21 [Example 287, 5′-(((1S,2S,4R)-rel-2-amino-7-azabicyclo[2.2.1]heptan-7-yl)methyl)-3-fluoro-2′-(6-fluoro-1-(2-hydroxy-2-methylpropyl)-1H-indazol-5-yl)-[1,1′-biphenyl]-4-carbonitrile-isomer-X dihydrochloride]	0.2 nM		0.1 nM
CC(C)(O)Cc1ccc(-c2ccc(CN3C4CCC3C(N)C4)cc2-c2ccc(C#N)c(F)c2)c(F)c1 [Example 290, 5′-(((1S,2S,4R)-rel-2-amino-7-azabicyclo[2.2.1]heptan-7-yl)methyl)-2″,3-difluoro-4″-(2-hydroxy-2-methylpropyl)-[1,1′:2′,1″-terphenyl]-4-carbonitrile-isomer-X dihydrochloride]	2.12 nM		1.06 nM
